Experimental data as given in US11680196B2, “Use of biodegradable hydrocarbon fluids as heat-transfer media” (TOTAL MARKETING SERVICES, priority 2016, dated 2023).

Experiment: Thermal stability, percentage of decomposition (GB/T 23800-2009, modified)
Assay type: physicochemical
Settings: after 500 hours at 320° C.
Method: The thermal stability has been evaluated in the present invention by measuring, according to the GB/T 23800-2009 standard, the percentage of decomposition of the fluid. The test performed in the present example differs from the standard by the temperature and the duration of the test. According to the example, the percentage of decomposition of the fluid has been measured after 500 hours at 320° C.
The fluid of Ex. 3 according to the invention and defined above has been compared with other commercial fluids: an alkylbenzene fluid, a dibenzyltoluene isomer, a mineral base oil and a hydrotreated mineral base oil.

dibenzyltoluene isomer
Thermal stability (% of decomposition): 6.9%
